Measurements taken from PubChem BioAssay AID248 (DTP/NCI, 2004).
Several values for one entry are separate records, joined by “and”; a condition that tells them apart may be missing. Identical values can stand only once. Inconclusive results and toxic doses are left out. No stated cut-off is given here; in the data, active means T/C of 150% or more; inactive means T/C below 125%.

System: L1210 leukemia ip in BDF1 mice, survival T/C
Test: NCI In Vivo Anticancer Drug Screen. Data for tumor model L1210 Leukemia (intraperitoneal) in B6D2F1 (BDF1) mice
Conditions: endpoint: mean survival time, higher = longer survival
How it was run: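 Transplanted-tumor mice were given test agent; controls received vehicle only. Survival readings from the two groups were divided (treated over control).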

[1] = dose: 100.0 mg/kg/injection, schedule: Q04DX002 (ip), vehicle: saline with Tween-80
[2] = dose: 200.0 mg/kg/injection, schedule: Q04DX002 (ip), vehicle: saline with Tween-80
[3] = dose: 400.0 mg/kg/injection, schedule: Q04DX002 (ip), vehicle: saline with Tween-80
[4] = dose: 200.0 mg/kg/injection, schedule: Q01DX001 (ip), vehicle: carboxymethylcellulose (CMC)
[5] = dose: 400.0 mg/kg/injection, schedule: Q01DX001 (ip), vehicle: carboxymethylcellulose (CMC)
[6] = dose: 50.0 mg/kg/injection, schedule: Q01DX001 (ip), vehicle: saline
[7] = dose: 100.0 mg/kg/injection, schedule: Q01DX001 (ip), vehicle: saline
[8] = dose: 200.0 mg/kg/injection, schedule: Q01DX001 (ip), vehicle: saline
[9] = dose: 400.0 mg/kg/injection, schedule: Q01DX001 (ip), vehicle: saline
[10] = dose: 150.0 mg/kg/injection, schedule: Q01DX001 (ip), vehicle: saline
[11] = dose: 100.0 mg/kg/injection, schedule: Q01DX001 (ip), vehicle: carboxymethylcellulose (CMC)

Measured: T/C

c1ccc2c(c1)ccc1c(C3CO3)cccc12 (stereo not given)
inactive: [1] 101 % of control | [2] 98 % of control | [3] 88 % of control

CCCCCC/C(=N/NC(N)=O)C(OC)OC
inactive: dose: 100.0 mg/kg/injection, schedule: Q01DX001 (ip), vehicle: other 94 % of control | dose: 200.0 mg/kg/injection, schedule: Q01DX001 (ip), vehicle: other 105 % of control | dose: 400.0 mg/kg/injection, schedule: Q01DX001 (ip), vehicle: other 100 % of control

O=C(CC(CC(=O)c1ccccc1)c1ccncc1)c1ccccc1
inactive: dose: 50.0 mg/kg/injection, schedule: Q01DX001 (ip), vehicle: carboxymethylcellulose (CMC) 95 % of control | [4] 90 % of control | [5] 86 % of control

CN(C)C(c1ccccc1)c1ccccc1
inactive: [6] 96 % of control | [7] 94 % of control | [8] 94 % of control | [9] 94 % of control

CN(C1=NS(=O)(=O)N=C(N(C)c2ccccc2)O1)c1ccccc1
inactive: dose: 100.0 mg/kg/injection, schedule: Q04DX003 (ip), vehicle: Klucel (hydroxypropylcellulose) (HPC) 102 % of control | dose: 200.0 mg/kg/injection, schedule: Q04DX003 (ip), vehicle: Klucel (hydroxypropylcellulose) (HPC) 102 % of control | dose: 400.0 mg/kg/injection, schedule: Q04DX003 (ip), vehicle: Klucel (hydroxypropylcellulose) (HPC) 98 % of control

N#CSCN1C(=O)C2CC=CCC2C1=O (stereo not given)
inactive: dose: 25.0 mg/kg/injection, schedule: Q04DX003 (ip), vehicle: saline with Tween-80 97 % of control

CCCCOP(=O)(N1CC1C)N1CC1C (stereo not given)
active: dose: 25.0 mg/kg/injection, schedule: Q04DX003 (ip), vehicle: acetone 153 % of control and 168 % of control | dose: 37.5 mg/kg/injection, schedule: Q04DX003 (ip), vehicle: acetone 163 % of control | [6] 164 % of control | dose: 66.0 mg/kg/injection, schedule: Q01DX001 (ip), vehicle: acetone 158 % of control | dose: 100.0 mg/kg/injection, schedule: Q01DX001 (ip), vehicle: acetone 169 % of control | [7] 159 % of control and 192 % of control | dose: 150.0 mg/kg/injection, schedule: Q01DX001 (ip), vehicle: acetone 189 % of control | [10] 168 % of control
inactive: dose: 6.25 mg/kg/injection, schedule: Q04DX003 (ip), vehicle: acetone 109 % of control | dose: 12.5 mg/kg/injection, schedule: Q04DX003 (ip), vehicle: acetone 115 % of control | dose: 25.0 mg/kg/injection, schedule: Q01DX001 (ip), vehicle: saline 123 % of control | dose: 75.0 mg/kg/injection, schedule: Q04DX003 (ip), vehicle: acetone 91 % of control

O=C(O)[C@@H]1C[C@H]1c1ccccc1
inactive: dose: 25.0 mg/kg/injection, schedule: Q04DX002 (ip), vehicle: saline + alcohol 100 % of control | dose: 50.0 mg/kg/injection, schedule: Q04DX002 (ip), vehicle: saline + alcohol 102 % of control | dose: 100.0 mg/kg/injection, schedule: Q01DX009 (ip), vehicle: saline with Tween-80 89 % of control | dose: 100.0 mg/kg/injection, schedule: Q04DX002 (ip), vehicle: saline + alcohol 109 % of control | [1] 114 % of control | dose: 200.0 mg/kg/injection, schedule: Q01DX009 (ip), vehicle: saline with Tween-80 87 % of control | dose: 400.0 mg/kg/injection, schedule: Q01DX009 (ip), vehicle: saline with Tween-80 92 % of control

O=C(OCC1OC(n2cnc3c(=S)nc[nH]c32)C(OC(=O)c2ccccc2)C1OC(=O)c1ccccc1)c1ccccc1 (stereo not given)
active: dose: 100.0 mg/kg/injection, schedule: Q01DX009 (ip), vehicle: saline 168 % of control | dose: 220.0 mg/kg/injection, schedule: Q01DX009 (ip), vehicle: saline 150 % of control | dose: 300.0 mg/kg/injection, schedule: Q01DX Z (ip), vehicle: carboxymethylcellulose (CMC) 150 % of control and 168 % of control | dose: 450.0 mg/kg/injection, schedule: Q01DX Z (ip), vehicle: carboxymethylcellulose (CMC) 171 % of control
inactive: dose: 25.0 mg/kg/injection, schedule: Q01DX009 (ip), vehicle: saline 118 % of control | dose: 25.0 mg/kg/injection, schedule: Q01DX Z (ip), vehicle: saline 109 % of control | dose: 39.0 mg/kg/injection, schedule: Q01DX Z (ip), vehicle: carboxymethylcellulose (CMC) 124 % of control | dose: 50.0 mg/kg/injection, schedule: Q01DX Z (ip), vehicle: saline 117 % of control | dose: 88.0 mg/kg/injection, schedule: Q01DX Z (ip), vehicle: carboxymethylcellulose (CMC) 118 % of control | dose: 110.0 mg/kg/injection, schedule: Q01DX009 (ip), vehicle: saline 123 % of control | dose: 222.0 mg/kg/injection, schedule: Q01DX Z (ip), vehicle: saline 95 % of control | dose: 300.0 mg/kg/injection, schedule: Q01DX Z (ip), vehicle: methylcellulose (MC) 112 % of control | dose: 450.0 mg/kg/injection, schedule: Q01DX Z (ip), vehicle: methylcellulose (MC) 97 % of control | dose: 600.0 mg/kg/injection, schedule: Q01DX001 (ip), vehicle: saline 120 % of control | dose: 675.0 mg/kg/injection, schedule: Q01DX Z (ip), vehicle: carboxymethylcellulose (CMC) 100 % of control and 109 % of control | dose: 1007.0 mg/kg/injection, schedule: Q01DX Z (ip), vehicle: carboxymethylcellulose (CMC) 93 % of control | dose: 1510.0 mg/kg/injection, schedule: Q01DX Z (ip), vehicle: carboxymethylcellulose (CMC) 90 % of control

CCN(CC)S(=O)(=O)NC1C(=O)N(c2ccccc2)N(C)C1C (stereo not given)
inactive: [1] 104 % of control | [2] 101 % of control | [3] 104 % of control

CC(C)C(CN)(CCCCN1CCCC1)c1cccc2ccccc12 (stereo not given)
inactive: dose: 12.5 mg/kg/injection, schedule: Q04DX003 (ip), vehicle: saline 96 % of control | dose: 25.0 mg/kg/injection, schedule: Q04DX003 (ip), vehicle: saline 93 % of control | dose: 50.0 mg/kg/injection, schedule: Q04DX003 (ip), vehicle: saline 96 % of control

CN1CN(c2ccccc2)C2(CCNCC2)C1=O
inactive: dose: 75.0 mg/kg/injection, schedule: Q01DX001 (ip), vehicle: saline 102 % of control | [10] 96 % of control

NC(=S)N/N=C/c1cc(=O)[nH]c(=O)[nH]1
inactive: [6] 93 % of control | [7] 95 % of control | [8] 98 % of control | [9] 95 % of control

Nc1ccc(NS(=O)(=O)CCl)cc1
inactive: [1] 111 % of control | [2] 116 % of control | [3] 96 % of control

CCN(CC)c1ccc(Sc2ccc([N+](=O)[O-])cc2[N+](=O)[O-])cc1
inactive: [11] 88 % of control | [4] 92 % of control | [5] 92 % of control

O=C1/C(=C/c2ccc([N+](=O)[O-])cc2)SC(=S)N1C1OC(CO)C(O)C(O)C1O (stereo not given)
inactive: dose: 25.0 mg/kg/injection, schedule: Q01DX005 (ip), vehicle: water 95 % of control | dose: 50.0 mg/kg/injection, schedule: Q01DX005 (ip), vehicle: water 95 % of control | dose: 100.0 mg/kg/injection, schedule: Q01DX005 (ip), vehicle: water 93 % of control

Clc1ccc2c(c1)N(C1CCCN(Cc3ccccc3)C1)c1ccccc1S2 (stereo not given)
inactive: [11] 94 % of control | [4] 94 % of control | [5] 90 % of control

c1ccc(OC2COC(Oc3ccccc3)CO2)cc1 (stereo not given)
inactive: [7] 97 % of control | dose: 100.0 mg/kg/injection, schedule: Q01DX009 (ip), vehicle: acetone 97 % of control | dose: 100.0 mg/kg/injection, schedule: Q04DX003 (ip), vehicle: saline 103 % of control | [8] 87 % of control | dose: 200.0 mg/kg/injection, schedule: Q01DX009 (ip), vehicle: acetone 92 % of control | dose: 200.0 mg/kg/injection, schedule: Q04DX003 (ip), vehicle: saline 97 % of control | [9] 90 % of control | dose: 400.0 mg/kg/injection, schedule: Q01DX009 (ip), vehicle: acetone 87 % of control | dose: 400.0 mg/kg/injection, schedule: Q04DX003 (ip), vehicle: saline 95 % of control

CCCCCCCCCCCCCCCCCC[N+]1(Cc2ccccc2)CCOCC1
inactive: dose: 100.0 mg/kg/injection, schedule: Q01DX001 (ip), vehicle: Klucel (hydroxypropylcellulose) (HPC) 110 % of control

Cc1cc(C)c2nc(N)sc2c1
inactive: dose: 100.0 mg/kg/injection, schedule: Q04DX003 (ip), vehicle: saline with Tween-80 94 % of control

Cc1ccc(O)c(C(c2cc(S(=O)(=O)O)c(O)cc2C)N2CN(C(c3cc(S(=O)(=O)O)c(O)cc3C)c3cc(C)ccc3O)C2=O)c1 (stereo not given)
inactive: [1] 101 % of control | [2] 93 % of control
